pIC50: −log10 of the molar value.
Experiments:
[1] = Displacement of UDP-[14C]GlcNAc from TarO (unknown origin) after 2.5 hrs by scintillation counting analysis
Staphylococcus aureus [2] = experiment: Ratio of MIC for community acquired methicillin-resistant Staphylococcus aureus USA300 in presence of targocil to MIC for community acquired methicillin-resistant Staphylococcus aureus USA300 by checkerboard broth microdilution assay; assay type: functional
Staphylococcus aureus [3] = experiment: Ratio of MIC for community acquired methicillin-resistant Staphylococcus aureus USA300 in presence of cefuroxime to MIC for community acquired methicillin-resistant Staphylococcus aureus USA300 by checkerboard broth microdilution assay; assay type: functional

Structure (SMILES)	pIC50 [1]	fractional inhibitory concentration index (FICI) (Staphylococcus aureus [2])	fractional inhibitory concentration index (FICI) (Staphylococcus aureus [3])
c1cc2c(s1)CCNC2	2.37	2	2
c1ccc(CN2CCc3ccccc3C2)cc1	3.57	1.3	0.63
Clc1ccccc1CN1CCCCC1	2.96	2	2
Clc1ccccc1CN1CCCC1		2	2
CCN1CCN(Cc2ccccc2Cl)CC1		2	2
Clc1ccccc1CN1CCc2ccccc2C1	3.28	8.1	0.13
Clc1cccc(CN2CCc3ccccc3C2)c1	3.57	8.1	2
Clc1ccc(CN2CCc3ccccc3C2)cc1		8.1	2
Cc1ccccc1CN1CCc2ccccc2C1		8.1	0.13
Fc1ccccc1CN1CCc2ccccc2C1		8	0.25
O=[N+]([O-])c1ccccc1CN1CCc2ccccc2C1		8.3	0.19
FC(F)(F)c1ccccc1CN1CCc2ccccc2C1	3.46	8.3	0.094
c1ccc2c(c1)CCN(Cc1ccncc1)C2		2	2
c1ccc2c(c1)CCN(Cc1ccc3ccccc3c1)C2	3.66	8.1	0.31
Clc1ccccc1CN1CCC2CCCCC2C1 (stereo not drawn)		2	2
Clc1ccc2c(c1)CCN(Cc1ccccc1Cl)C2	3.72	4.5	2
Oc1ccc2c(c1)CN(Cc1ccccc1Cl)CC2		4.5	2
Clc1ccccc1C[n+]1ccc2ccccc2c1	< 2.30	2	2
Clc1ccccc1CC1CCc2ccccc2N1 (stereo not drawn)	3.57	8.3	0.19
COC(=O)C(c1ccccc1Cl)N1CCc2ccccc2C1 (racemic)	3.72	8.2	0.19
O=C(O)C(c1ccccc1Cl)N1CCc2sccc2C1 (racemic)		2	0.75
O=C(O)C(c1ccccc1Cl)N1CCc2ccccc2C1 (racemic)	3.36	2	0.75
O=C(O)C(c1ccccc1C(F)(F)F)N1CCc2ccccc2C1 (racemic)		2	2
COC(=O)C(c1ccccc1C(F)(F)F)N1CCc2ccccc2C1 (racemic)		8.3	0.13
NC(=O)C(c1ccccc1C(F)(F)F)N1CCc2ccccc2C1 (racemic)		2	1
COC(=O)[C@H](c1ccccc1Cl)N1CCc2sccc2C1 [CLOPIDOGREL]	3.82	8.1	0.19
Clc1ccccc1CN1CCc2sccc2C1 [TICLOPIDINE]	3.82	8.3	0.13

Reference: ChEMBL document CHEMBL3112416, “Designing analogs of ticlopidine, a wall teichoic acid inhibitor, to avoid formation of its oxidative metabolites” (Bioorg Med Chem Lett, 2014)
